Measurements as given in ChEMBL document CHEMBL1201862, “PubChem BioAssay data set” (2004).
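Cultured in 96-well plates, cells were exposed to test compound for 48 hours across five concentrations. GI50: concentration for 50% inhibition of growth.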 The source made the active and inactive calls. Cut-off read from the data, not from the text of the source: active = GI50 up to about 1.1 µM and inactive = higher.

Key:
Test in all cases: NCI anticancer screen, dose series, 48 h
786-0 = tested on: 786-0
A498 = tested on: A498
A549 = tested on: A549
ACHN = tested on: ACHN
CAKI-1 = tested on: CAKI-1
CCRF-CEM = tested on: CCRF-CEM
COLO 205 = tested on: COLO 205
DU-145 = tested on: DU-145
EKVX = tested on: EKVX
HCC 2998 = tested on: HCC 2998
HCT-116 = tested on: HCT-116
HCT-15 = tested on: HCT-15
HL-60 = tested on: HL-60
HOP-62 = tested on: HOP-62
HOP-92 = tested on: HOP-92
HT-29 = tested on: HT-29
Hs-578T = tested on: Hs-578T
IGROV-1 = tested on: IGROV-1
K562 = tested on: K562
KM12 = tested on: KM12
LOX IMVI = tested on: LOX IMVI
M14 = tested on: M14
MCF7 = tested on: MCF7
MDA-MB-231 = tested on: MDA-MB-231
MDA-MB-435 = tested on: MDA-MB-435
MDA-N = tested on: MDA-N
MOLT-4 = tested on: MOLT-4
Malme-3M = tested on: Malme-3M
NCI-H226 = tested on: NCI-H226
NCI-H23 = tested on: NCI-H23
NCI-H460 = tested on: NCI-H460
NCI/ADR-RES = tested on: NCI/ADR-RES
OVCAR-3 = tested on: OVCAR-3
OVCAR-4 = tested on: OVCAR-4
OVCAR-5 = tested on: OVCAR-5
OVCAR-8 = tested on: OVCAR-8
PC-3 = tested on: PC-3
RPMI-8226 = tested on: RPMI-8226
RXF 393 = tested on: RXF 393
SF-268 = tested on: SF-268
SF-295 = tested on: SF-295
SF-539 = tested on: SF-539
SK-MEL-28 = tested on: SK-MEL-28
SK-MEL-2 = tested on: SK-MEL-2
SK-OV-3 = tested on: SK-OV-3
SN12C = tested on: SN12C
SNB-19 = tested on: SNB-19
SNB-75 = tested on: SNB-75
SR = tested on: SR
SW-620 = tested on: SW-620
T47D = tested on: T47D
TK-10 = tested on: TK-10
U-251 = tested on: U-251
UACC-257 = tested on: UACC-257
UACC-62 = tested on: UACC-62
UO-31 = tested on: UO-31
NCI-H522 = tested on: NCI-H522
SK-MEL-5 = tested on: SK-MEL-5

SMILES: Cc1ccc(Cl)c2c1NC(=O)/C2=N\Nc1ccccc1[N+](=O)[O-]
- GI50 (786-0): 28.8 µM (inactive)
- GI50 (A498): > 100 µM (inactive)
- GI50 (A549): 83 µM (inactive)
- GI50 (ACHN): 76.7 µM (inactive)
- GI50 (CAKI-1): > 100 µM (inactive)
- GI50 (CCRF-CEM): 24.5 µM (inactive)
- GI50 (COLO 205): 46.3 µM (inactive)
- GI50 (DU-145): 47.1 µM (inactive)
- GI50 (EKVX): 40.2 µM (inactive)
- GI50 (HCC 2998): 36.9 µM (inactive)
- GI50 (HCT-116): 36.3 µM (inactive)
- GI50 (HCT-15): 37.8 µM
- GI50 (HL-60): 25.5 µM (inactive)
- GI50 (HOP-62): 56.1 µM (inactive)
- GI50 (HOP-92): 42.5 µM (inactive)
- GI50 (HT-29): 35.8 µM (inactive)
- GI50 (Hs-578T): 22.4 µM (inactive)
- GI50 (IGROV-1): 6.53 µM (inactive)
- GI50 (K562): 39.4 µM (inactive)
- GI50 (KM12): 23.8 µM (inactive)
- GI50 (LOX IMVI): 25.6 µM (inactive)
- GI50 (M14): 42.6 µM (inactive)
- GI50 (MCF7): 36.3 µM (inactive)
- GI50 (MDA-MB-231): 75 µM (inactive)
- GI50 (MDA-MB-435): 15.7 µM (inactive)
- GI50 (MDA-N): 39.4 µM (inactive)
- GI50 (MOLT-4): 37.3 µM (inactive)
- GI50 (Malme-3M): 42.7 µM (inactive)
- GI50 (NCI-H226): > 100 µM (inactive)
- GI50 (NCI-H23): 47.6 µM (inactive)
- GI50 (NCI-H460): 30.4 µM (inactive)
- GI50 (NCI/ADR-RES): 57.1 µM (inactive)
- GI50 (OVCAR-3): 27.3 µM (inactive)
- GI50 (OVCAR-4): 96.6 µM (inactive)
- GI50 (OVCAR-5): > 100 µM (inactive)
- GI50 (OVCAR-8): 39.7 µM (inactive)
- GI50 (PC-3): 27.7 µM (inactive)
- GI50 (RPMI-8226): 52.8 µM (inactive)
- GI50 (RXF 393): > 100 µM (inactive)
- GI50 (SF-268): 45.8 µM (inactive)
- GI50 (SF-295): 24.1 µM (inactive)
- GI50 (SF-539): 21.3 µM (inactive)
- GI50 (SK-MEL-28): > 100 µM (inactive)
- GI50 (SK-MEL-2): > 100 µM (inactive)
- GI50 (SK-OV-3): > 100 µM (inactive)
- GI50 (SN12C): > 100 µM (inactive)
- GI50 (SNB-19): 68.4 µM (inactive)
- GI50 (SNB-75): 54.5 µM (inactive)
- GI50 (SR): 8.22 µM (inactive)
- GI50 (SW-620): 27 µM (inactive)
- GI50 (T47D): 44.3 µM (inactive)
- GI50 (TK-10): > 100 µM (inactive)
- GI50 (U-251): 31.6 µM (inactive)
- GI50 (UACC-257): 82.2 µM (inactive)
- GI50 (UACC-62): 31.4 µM (inactive)
- GI50 (UO-31): 34.8 µM (inactive)

SMILES: O=C1Nc2ccccc2Cn2c1cc1oc(-c3ccccc3)cc12
- GI50 (786-0): 20.4 µM (inactive)
- GI50 (A498): 36.5 µM (inactive)
- GI50 (A549): 32.4 µM (inactive)
- GI50 (ACHN): 37.2 µM (inactive)
- GI50 (CAKI-1): 30 µM (inactive)
- GI50 (CCRF-CEM): > 100 µM (inactive)
- GI50 (COLO 205): > 100 µM (inactive)
- GI50 (DU-145): 17.3 µM (inactive)
- GI50 (EKVX): 33.7 µM (inactive)
- GI50 (HCC 2998): > 100 µM (inactive)
- GI50 (HCT-15): 88.9 µM
- GI50 (HL-60): > 100 µM (inactive)
- GI50 (HOP-62): 21.6 µM (inactive)
- GI50 (HOP-92): 31.3 µM (inactive)
- GI50 (HT-29): > 100 µM (inactive)
- GI50 (Hs-578T): 10.9 µM (inactive)
- GI50 (IGROV-1): 29.8 µM (inactive)
- GI50 (K562): 50.2 µM (inactive)
- GI50 (KM12): 95.1 µM (inactive)
- GI50 (LOX IMVI): > 100 µM (inactive)
- GI50 (MCF7): 10.8 µM (inactive)
- GI50 (MDA-MB-231): 32.5 µM (inactive)
- GI50 (MDA-MB-435): > 100 µM (inactive)
- GI50 (MDA-N): > 100 µM (inactive)
- GI50 (MOLT-4): > 100 µM (inactive)
- GI50 (Malme-3M): 30.3 µM (inactive)
- GI50 (NCI-H23): 86.9 µM (inactive)
- GI50 (NCI-H460): 61.7 µM (inactive)
- GI50 (NCI-H522): 43.2 µM (inactive)
- GI50 (NCI/ADR-RES): 45.5 µM (inactive)
- GI50 (OVCAR-3): 19.2 µM (inactive)
- GI50 (OVCAR-4): 28.8 µM (inactive)
- GI50 (OVCAR-5): 62.4 µM (inactive)
- GI50 (OVCAR-8): 31 µM (inactive)
- GI50 (PC-3): 57.3 µM (inactive)
- GI50 (RXF 393): 21.4 µM (inactive)
- GI50 (SF-268): 24 µM (inactive)
- GI50 (SF-295): 17.7 µM (inactive)
- GI50 (SF-539): 29.7 µM (inactive)
- GI50 (SK-MEL-28): 63.5 µM (inactive)
- GI50 (SK-MEL-2): 44.2 µM (inactive)
- GI50 (SK-MEL-5): 7.57 µM (inactive)
- GI50 (SK-OV-3): 28 µM (inactive)
- GI50 (SN12C): 27.4 µM (inactive)
- GI50 (SNB-19): 22.5 µM (inactive)
- GI50 (SNB-75): 24.9 µM (inactive)
- GI50 (SR): > 100 µM (inactive)
- GI50 (SW-620): > 100 µM (inactive)
- GI50 (T47D): 23.8 µM (inactive)
- GI50 (TK-10): > 100 µM (inactive)
- GI50 (U-251): 16 µM (inactive)
- GI50 (UACC-257): > 100 µM (inactive)
- GI50 (UACC-62): 34.1 µM (inactive)
